Reference: patent EP4603105A1, “PHARMACEUTICAL COMPOSITION CONTAINING CYCLIC COMPOUND HAVING SELECTIVE KRAS INHIBITORY EFFECT AGAINST HRAS AND NRAS” (CHUGAI SEIYAKU KABUSHIKI KAISHA, priority 2022, dated 2024)

Experiments:
[1] = target: GDP-bound KRAS wild-type protein (Homo sapiens, UniProt P01116); test: Binding to KRAS by surface plasmon resonance (SPR), dissociation constant KD; details: 1:1 binding model
Method in brief: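 Compound binding is evaluated by SPR single-cycle kinetics, with concentrations added intermittently from low to high for 75 s each. Target surfaces carry GDP-loaded biotinylated Avi-RAS at about 100–300 RU, regenerated after each cycle; temperature 30°C. A 1:1 binding model gives KD.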

[2] = target: GDP-bound NRAS wild-type protein (Homo sapiens, UniProt P01111); test: Binding to NRAS by surface plasmon resonance (SPR), KD and KD ratio to KRAS
Method in brief: (§1)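 SPR, 30°C: Avi-biotin RAS·GDP captured via Biotin CAPture (~100–300 RU); running buffer HBS pH 7.4, 1 mM DTT, 10 mM MgCl2, 0.01% Tween 20, 10 µM GDP, 4% DMSO. Single-cycle kinetics, 100 µL/min, 75 s injections; 1:1 model → KD.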

HRAS wild-type protein = HRAS wild-type protein (Homo sapiens, UniProt P01112); test: Binding to HRAS by surface plasmon resonance (SPR), KD and KD ratio to KRAS
Method in brief: as §1

[3] = test system: human lung cancer strain NCI-H441; format: cell-based
Method in brief: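 Proliferation was scored by […] measured after the reagent was added to cultures kept at 37°C in 5% carbon dioxide.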

[4] = ratio of KD for GDP-bound NRAS wild-type protein to KD for KRAS
[5] = ratio of KD for HRAS wild-type protein to KD for KRAS
[6] = ratio of the KD value with respect to GDP-bound NRAS wild-type protein to the KD value with respect to KRAS
[7] = ratio of the KD value with respect to HRAS wild-type protein to the KD value with respect to KRAS
[8] = ratio of KD value for GDP-bound NRAS wild-type protein to KD value for KRAS (SPR)
[9] = ratio of KD value for HRAS wild-type protein to KD value for KRAS (SPR)

GDP-bound KRAS wild-type protein, sequence (P01116 1-188 isoform P01116-2): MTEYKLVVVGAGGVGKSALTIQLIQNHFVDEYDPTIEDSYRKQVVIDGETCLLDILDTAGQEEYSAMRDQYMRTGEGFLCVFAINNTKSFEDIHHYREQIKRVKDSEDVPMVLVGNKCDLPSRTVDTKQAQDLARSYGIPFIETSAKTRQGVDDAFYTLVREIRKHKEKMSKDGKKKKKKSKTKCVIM
HRAS wild-type protein, sequence (P01112 whole entry): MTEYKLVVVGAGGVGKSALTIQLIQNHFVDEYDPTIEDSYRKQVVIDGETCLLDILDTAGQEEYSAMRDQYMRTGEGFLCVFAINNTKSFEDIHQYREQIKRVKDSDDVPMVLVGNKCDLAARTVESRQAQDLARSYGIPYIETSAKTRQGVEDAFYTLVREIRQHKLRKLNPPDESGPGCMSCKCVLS
GDP-bound NRAS wild-type protein, sequence (P01111 whole entry): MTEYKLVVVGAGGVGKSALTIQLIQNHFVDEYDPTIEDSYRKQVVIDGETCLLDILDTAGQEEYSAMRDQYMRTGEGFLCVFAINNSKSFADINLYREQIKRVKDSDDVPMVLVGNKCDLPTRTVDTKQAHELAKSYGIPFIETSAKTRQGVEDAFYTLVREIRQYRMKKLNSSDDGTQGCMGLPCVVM

SMILES	Kd [1] [nM]	NRAS /KRAS [2, 4]	HRAS /KRAS (HRAS wild-type protein; [5])	IC50 [3] [nM]	Kd ([1]; Single Cycle Kinetics) [nM]	NRAS /KRAS [2, 6]	HRAS /KRAS (HRAS wild-type protein; [7])	NRAS /KRAS [2, 8]	HRAS /KRAS (HRAS wild-type protein; [9])
CCC(CC)[C@H]1C(=O)N(C)[C@H](C(=O)N(C)C)CC(=O)N(C)[C@@H](COC)C(=O)N[C@@H]([C@@H](C)CC)C(=O)N(C)CC(=O)N(C)[C@H]2C/C=C\CCN(C2=O)[C@@H](Cc2ccc(C)cc2)C(=O)N(C)CC(=O)N[C@@H](CCc2cc(F)c(C(F)(F)F)c(F)c2)C(=O)N2CCCCC[C@H]2C(=O)NC2(CC(C)(C)C2)C(=O)N1C [PP2960]	0.32	A (a compound having 10 or more and less than 20 is denoted as A)	A (a compound having 10 or more and less than 20 is denoted as A)	8.9	–	–	–	–	–
CC[C@H](C)[C@@H]1NC(=O)[C@H](CC(C)C)N(C)C(=O)C[C@@H](C(=O)N2CCOCC2)N(C)C(=O)[C@H](C2CCCC2)N(C)C(=O)C2(CCCC2)NC(=O)[C@@H]2CCCN2C(=O)[C@H](CCc2ccc(C(F)(F)F)c(Cl)c2)NC(=O)CN(C)C(=O)[C@H](Cc2ccc(C)cc2)N2CC=CC[C@@H](C2=O)N(C)C(=O)CN(C)C1=O [PP0460]	–	–	–	5.4	0.14	C (A compound having a KD ratio of 0.1 or more and less than 3 is denoted as C)	C (A compound having a KD ratio of 0.1 or more and less than 3 is denoted as C)	–	–
CCCC[C@H]1C(=O)N[C@@H]([C@@H](C)CC)C(=O)N(C)CC(=O)N(C)[C@H]2C/C=C\CCN(C2=O)[C@@H](Cc2ccc(C(F)(F)F)cc2)C(=O)N(C)CC(=O)N[C@@H](CCc2ccc(C(F)(F)F)cc2Cl)C(=O)N2C[C@H](F)C[C@H]2C(=O)NC2(CC(C)(C)C2)C(=O)N(C)[C@@H](C2CCC2)C(=O)N(C)[C@H](C(=O)N(C)C)CC(=O)N1C [PP3124]	1.1	A (a compound having 10 or more and less than 20 is denoted as A)	A (a compound having 10 or more and less than 20 is denoted as A)	39	–	–	–	–	–
CCO[C@@H]1C[C@H]2C(=O)NC3(CC(C)(C)C3)C(=O)N(C)[C@@H](C(CC)CC)C(=O)N(C)[C@H](C(=O)N(C)C)CC(=O)N(C)[C@@H](CC(C)C)C(=O)N[C@@H]([C@@H](C)CC)C(=O)N(C)CC(=O)N(C)[C@H]3C/C=C\CCN(C3=O)[C@@H](Cc3ccc(C)cc3)C(=O)N(C)CC(=O)N[C@@H](CCc3ccc(C(F)(F)F)c(Cl)c3)C(=O)N2C1 [PP2148]	–	–	–	41.5	0.34	A (a compound having 10 or more and less than 20 is denoted as A)	A (a compound having 10 or more and less than 20 is denoted as A)	–	–
CCO[C@@H]1C[C@H]2C(=O)NC3(CC(C)(C)C3)C(=O)N(C)[C@@H](C3CCCC3)C(=O)N(C)[C@H](C(=O)N(C)C)CC(=O)N(C)[C@@H](CC3CCCC3)C(=O)N[C@@H]([C@@H](C)CC)C(=O)N(C)CC(=O)N(C)[C@H]3C/C=C\CCN(C3=O)[C@@H](Cc3ccc(C(F)(F)F)cc3)C(=O)N(C)CC(=O)N[C@@H](CCc3ccc(C(F)(F)F)c(OC)c3)C(=O)N2C1 [PP1565]	–	–	–	6.5	0.11	–	–	A (a compound having 10 or more and less than 20 is denoted as A)	B (a compound having 3 or more and less than 10 is denoted as B)
CCC[C@H]1C(=O)N[C@@H]([C@@H](C)CC)C(=O)N(C)CC(=O)N(C)[C@H]2C/C=C\CCN(C2=O)[C@@H](Cc2ccc(C)cc2)C(=O)N(C)CC(=O)N[C@@H](CCc2ccc(C(F)(F)F)c(OC)c2)C(=O)N2C[C@@H](C)C[C@H]2C(=O)NC2(CC(C)(C)C2)C(=O)N(C)[C@@H](C2CCCC2)C(=O)N(C)[C@H](C(=O)N(C)C)CC(=O)N1C [PP1888]	–	–	–	3.5	0.074	–	–	A (a compound having 10 or more and less than 20 is denoted as A)	B (a compound having 3 or more and less than 10 is denoted as B)
CCO[C@@H]1C[C@H]2C(=O)NC3(CCC3)C(=O)N(C)[C@@H](C3CCCC3)C(=O)N(C)[C@H](C(=O)N(C)CC)CC(=O)N(C)[C@@H](CC3CCC3)C(=O)N[C@@H]([C@@H](C)CC)C(=O)N(C)CC(=O)N(C)[C@H]3C/C=C\CCN(C3=O)[C@@H](Cc3ccc(C(F)(F)F)cc3)C(=O)N(C)CC(=O)N[C@@H](CCc3cc(F)c(C(F)(F)F)c(F)c3)C(=O)N2C1 [PP1667]	–	–	–	2	0.081	–	–	A (a compound having 10 or more and less than 20 is denoted as A)	A (a compound having 10 or more and less than 20 is denoted as A)
CCOC[C@H]1C(=O)N[C@@H]([C@@H](C)CC)C(=O)N(C2CC2)CC(=O)N(C)[C@H]2C/C=C\CCN(C2=O)[C@@H](CC2CCCCC2)C(=O)N(C)CC(=O)N[C@@H](CCc2ccc(C(F)(F)F)c(OC)c2)C(=O)N2C[C@H](OCC)C[C@H]2C(=O)N(C)C2(CCC2)C(=O)N(C)[C@@H](C2CCCC2)C(=O)N(C)[C@H](C(=O)N(C)C)CC(=O)N1C [PP2342]	–	–	–	70.3	0.55	A (a compound having 10 or more and less than 20 is denoted as A)	A (a compound having 10 or more and less than 20 is denoted as A)	–	–
CCCO[C@@H]1C[C@H]2C(=O)NC3(CC(C)(C)C3)C(=O)N(C)[C@@H](C3CCCC3)C(=O)N(C)[C@H](C(=O)N(C)CC)CC(=O)N(C)[C@H]3CCCc4ccc(cc4)C[C@@H](C(=O)N(C)CC(=O)N[C@@H](CCc4ccc(C(F)(F)F)c(OC)c4)C(=O)N2C1)N1CC/C=C\C[C@@H](C1=O)N(C)C(=O)CN(C)C(=O)[C@H]([C@@H](C)CC)NC3=O [PP3083]	0.077	A (a compound having 10 or more and less than 20 is denoted as A)	A (a compound having 10 or more and less than 20 is denoted as A)	2.5	–	–	–	–	–
CCCOC[C@H]1C(=O)N[C@@H]([C@@H](C)CC)C(=O)N(C2CC2)CC(=O)N(C)[C@H]2C/C=C\CCN(C2=O)[C@@H](CC2CCC(F)(F)CC2)C(=O)N(C)CC(=O)N[C@@H](CCc2ccc(C(F)(F)F)c(OC)c2)C(=O)N2C[C@H](OCC)C[C@H]2C(=O)N(C)C2(CCC2)C(=O)N(C)[C@@H](C2CCCC2)C(=O)N(C)[C@H](C(=O)N(C)C)CC(=O)N1C [PP2354]	–	–	–	9.3	0.79	A (a compound having 10 or more and less than 20 is denoted as A)	A (a compound having 10 or more and less than 20 is denoted as A)	–	–
CCC[C@H]1C(=O)N[C@@H]([C@@H](C)CC)C(=O)N(C)CC(=O)N(C)[C@H]2C/C=C\CCN(C2=O)[C@@H](Cc2ccc(C)cc2)C(=O)N(C)CC(=O)N[C@@H](CCc2ccc3ccn(C)c3c2)C(=O)N2C[C@H](OCC)C[C@H]2C(=O)NC2(CC(C)(C)C2)C(=O)N(C)[C@@H](C(CC)CC)C(=O)N(C)[C@H](C(=O)N(C)C)CC(=O)N1C [PP2914]	14	AA (a compound having 20 or more is denoted as AA)	A (a compound having 10 or more and less than 20 is denoted as A)	311	–	–	–	–	–
CCO[C@@H]1C[C@H]2C(=O)NC3(CC(C)(C)C3)C(=O)N(C)[C@@H](C(CC)CC)C(=O)N(C)[C@H](C(=O)N(C)C)CC(=O)N(C)[C@@H](C(C)C)C(=O)N[C@@H]([C@@H](C)CC)C(=O)N(C)CC(=O)N(C)[C@H]3C/C=C\CCN(C3=O)[C@@H](Cc3ccc(C)cc3)C(=O)N(C)CC(=O)N[C@@H](CCc3cc(F)c(C(F)(F)F)c(F)c3)C(=O)N2C1 [PP2153]	–	–	–	20	0.49	A (a compound having 10 or more and less than 20 is denoted as A)	A (a compound having 10 or more and less than 20 is denoted as A)	–	–
